Columns and labels:
[1] = tested on: RKO (RKOp27) human colon adenocarcinoma cells; assay: Alamar Blue cell viability assay, anti-proliferative/cytotoxic activity, proliferating (uninduced) RKOp27 cells; format: cell-based; settings: no Ponasterone A, 72 hours incubation, 4000 cells per well, read-out: IC50 RKO p27 uninduced
Description: The anti-proliferative/cytotoxic activity of the compounds described herein, can be tested on subclones of RKO (RKOp27) human colon adenocarcinoma cells (Schmidt et al., Oncogene 19, 2423-2429; 2000) using the Alamar Blue cell viability assay (described in O'Brien et al. Eur J Biochem 267, 5421-5426, 2000). The compounds are dissolved as 20 mM solutions in dimethylsulfoxide (DMSO) and subsequently diluted in semi-logarithmic steps. DMSO dilutions are further diluted 1:100 into Dulbecco's modified Eagle's medium (DMEM) containing 10% fetal calf serum to a final concentration twice as much as the final concentration in the test. RKO subclones are seeded into 96 well flat bottom plates at a density of 4000 cells per well in a volume of 50 μl per well. 24 hours after seeding the 50 μl each of the compound dilutions in DMEM medium are added into each well of the 96 Well plate. Each compound dilution is tested as quadruplicates. Wells containing untreated control cells are filled with 50 μl DMEM medium containing 1% DMSO. The cells are then incubated with the substances for 72 hours at 37° C. in a humified atmosphere containing 5% carbon dioxide. To determine the viability of the cells, 10 μl of an Alamar Blue solution (Biosource) are added and the fluorescence was measured at an extinction of 544 nm and an emission of 590 nm. For the calculation of the cell viability the emission value from untreated cells is set as 100% viability and the emission rates of treated cells were set in relation to the values of untreated cells. Viabilities are expressed as % values.
The corresponding IC50 values of the compounds for anti-proliferative/cytotoxic activity are determined from the concentration-effect curves.
Representative IC50 values for anti-proliferation/cytotoxicity determined in the aforementioned assay are described in the table A (1st column), in which the numbers of the compound correspond to the numbers of the examples.

[2] = tested on: RKOp27 colon adenocarcinoma cells arrested by expression of ectopic p27Klp1; assay: Alamar Blue cell viability assay, cell cycle specific mode of action, RKOp27 cells arrested by Ponasterone A-induced p27 expression; format: cell-based; settings: Homo sapiens, cells arrested by p27 induced with 10 μM Ponasterone A, 72 hours incubation, 16000 cells per well, read-out: IC50 RKO p27 induced
Description: To determine the cell cycle specific mode of action, subclones of RKO colon adenocarcinoma cells (RKOp27 or RKOp21 as described by Schmidt et al. in Oncogene 19, 2423-2429; 2000) are seeded into 96 well flat bottom plates at a density of 16000 cells per well in a volume of 50 μl per well in DMEM growth medium with 10% FCS containing 10 μM Ponasterone A. 24 hours after seeding the 50 μl each of the compound dilutions in DMEM medium are added into each well of the 96 Well plate. Each compound dilution is tested as quadruplicates. Wells containing untreated control cells are filled with 50 μl DMEM medium containing 1% DMSO. The cells are then incubated with the substances for 72 hours at 37° C. in a humidified atmosphere containing 5% carbon dioxide. To determine the viability of the cells, 10 μl of an Alamar Blue solution (Biosource) are added and the fluorescence was measured at an extinction of 544 nm and an emission of 590 nm. For the calculation of the cell viability the emission value from untreated cells is set as 100% viability and the emission rates of treated cells are set in relation to the values of untreated cells. Viabilities are expressed as % values. Viability is compared of proliferating cells grown in the absence of the inducer Ponasterone A, versus viability of cells arrested by the expression of ectopic p27Klp1 induced by Ponasterone A. The data of this experimental setting are summarized in table A (2nd column).

| IC50 [2] [nM] | SMILES | IC50 [1] [nM] |
| --- | --- | --- |
| > 100000 | Cc1ncsc1CCOC(=O)N1CCc2c(sc(NC(=O)c3cccnc3)c2C#N)C1 [Compound 17, 3-Cyano-2-[(1-Pyridin-3-yl-methanoyl)-amino]-4,7-dihydro-5H-thieno[2,3-c]pyridine-6-carboxylic Acid 2-(4-methyl-thiazol-5-yl)-ethyl Ester] | ≤ 3000 |
| > 100000 | CCSC(=O)N1CCc2c(sc(NC(=O)c3cccnc3)c2C#N)C1 [Compound 16, 3-Cyano-2-[(1-pyridin-3-yl-methanoyl)-amino]-4,7-dihydro-5H-thieno[2,3-c]pyridine-6-carbothioic Acid S-ethyl Ester] | ≤ 3000 |
| > 100000 | CCOC(=O)N1CCc2c(sc(NC(=O)c3cc4ccccc4s3)c2C#N)C1 [Compound 8, 2-[(1-Benzo[b]thiophen-2-yl-methanoyl)-amino]-3-cyano-4,7-dihydro-5H-thieno[2,3-c]pyridine-6-carboxylic Acid Ethyl Ester] | 5000 |
| > 100000 | CCOC(=O)N1CCc2c(sc(NC(=O)c3ccc4c(c3)OCC4)c2C#N)C1 [Compound 12] | ≤ 3000 |
| > 100000 | CCOC(=O)N1CCc2c(sc(NC(=O)c3ccc(C)s3)c2C#N)C1 [Compound 10, 3-Cyano-2-{[1-(5-methyl-thiophen-2-yl)-methanoyl]-amino}-4,7-dihydro-5H-thieno[2,3-c]pyridine-6-carboxylic Acid Ethyl Ester] | 200 |
| > 100000 | CCOC(=O)N1CCc2c(sc(NC(=O)c3c(C)noc3-c3ccccc3)c2C#N)C1 [Compound 5, 3-Cyano-2-{[1-(3-methyl-5-phenyl-isoxazol-4-yl)-methanoyl]-amino}-4,7-dihydro-5H-thieno [2,3-c]pyridine-6-carboxylic Acid Ethyl Ester] | 2000 |
| > 100000 | CCOC(=O)N1CCc2c(sc(NC(=O)c3cccnc3)c2C#N)C1 [Compound 1, N-(6-ethoxycarbonyl-3-cyano-4,5,6,7-tetrahydro-thieno[2,3-c]pyridin-2-yl)-nicotinyl Amide] | 500 |
| > 100000 | CCOC(=O)N1CCc2c(sc(NC(=O)c3cccs3)c2C#N)C1 [Compound 7, 3-Cyano-2-[(1-thiophen-2-yl-methanoyl)-amino]-4,7-dihydro-5H-thieno[2,3-c]pyridine-6-carboxylic Acid Ethyl Ester] | 2000 |
| > 100000 | CCOC(=O)N1CCc2c(sc(NC(=O)C3=Cc4ccccc4OC3)c2C#N)C1 [Compound 6, 2-[(1-2H-Chromen-3-yl-methanoyl)-amino]-3-cyano-4,7-dihydro-5H-thieno[2,3-c]pyridine-6-carboxylic Acid Ethyl Ester] | 2000 |
| > 100000 | CCCC(=O)N1CCc2c(sc(NC(=O)c3cccnc3)c2C#N)C1 [Compound 14, N-(6-Butanoyl-3-cyano-4,5,6,7-tetrahydro-thieno[2,3-c]pyridin-2-yl)-nicotinyl Amide] | ≤ 3000 |

— patent publication US7517986B2, “Tetrahydropyridothiophenes for use in the treatment of cancer” (4SC AG, priority 2004, dated 2009)
